{
  "source": "patent US20100129805A1",
  "about": "“SLC1A1 ANTIPSYCHOTIC DRUG RESPONSE MARKERS” (priority 2006, published 2010)",
  "test_system": "patients with DSM-III-R or DSM-IV diagnoses of SCZ refractory or intolerant to conventional antipsychotics",
  "experiment": "Clozapine response after 6 months treatment (% score change on BPRS, BPOS, BNEG) by SLC1A1 genotype/haplotype",
  "type": "in vivo, human",
  "conditions": "6 months clozapine",
  "text": "Effect of 5 Single Nucleotide Polymorphisms (SNPs) Across the SLC1A1 Gene on Clozapine (CZ) Response After 6 Months Treatment in Two Distinct Schizophrenic Populations (Caucasian and African-American) Refractory or Intolerant to Conventional Antipsychotics.\n97 patients (73 Caucasians and 24 African-Americans) with DSM-III-R or DSM-IV diagnoses of SCZ assessed from Case Western Reserve University, Cleveland, Ohio.\nNo significant differences were observed between Caucasians and African-Americans in terms of gender ratio (P=0.234) or mean age (P=0.561). Almost all subjects met criteria for treatment refractoriness or intolerance to typical antipsychotic therapy as defined by Kane et al (1988). Patients underwent a washout period of 2 to 4 weeks during which, unless clinically necessary, they received no medications before starting clozapine (CZ). CZ treatment was continued for a minimum of 6 months during which patients were evaluated prospectively. CZ blood levels were monitored throughout course of treatment to ascertain compliance,\nTreatment response is evaluated as a percentage (%) score change from baseline using the 18-item Brief Psychiatric Rating Scale (BPRS), a 4-item positive symptom subscale (BPOS) and 3-item negative symptom subscale (BNEG)—after 6 months of clozapine treatment. % score change=(6 months score−baseline score)/Baseline score. A negative value of % score change in each scale would indicate an improvement in symptoms measured by that particular scale.\nBlood samples were collected from clinical sites and sent to the Centre for Addiction and Mental Health (CAMH) in Toronto, ON, Canada—where genotyping of patients' DNA was performed by 5′-exonuclease fluorescence assays. The 5 informative SNPs (minor allele frequency>20%) spanning SLC1A1 were chosen based on location (see Table 1)—with 2 in coding regions and 3 from different intronic regions and different haplotype blocks. Laboratory staff was blind to the psychiatric ratings.\nWithin each ethnic population, individual SNP analyses of % score changes (continuous data) were performed using Analysis of Variance (ANOVA) in STATA ver7.0. Haplotype analysis of unphased quantitative data was performed using QTPHASE (Dudbridge, 2003).",
  "data": [
    {"compound": "CN1CCN(C2=Nc3cc(Cl)ccc3Nc3ccccc32)CC1", "note": "[clozapine]", "values": [
      {"measurement": "Mean BPOS % score change", "setting": "haplotype 1-1-1 in SNP window 1-2-3, Caucasians and African-Americans combined", "result": "−0.198"},
      {"measurement": "Mean BNEG % score change", "setting": "haplotype 1-1 in SNP window 4-5, African-Americans", "result": "−0.379"},
      {"measurement": "Mean BNEG % score change", "setting": "haplotype 1-2-1 in SNP window 3-4-5, African-Americans", "result": 0.086},
      {"measurement": "Mean BNEG % score change", "setting": "haplotype 1-2 in SNP window 3-4, African-Americans", "result": 0.143},
      {"measurement": "Mean BNEG % score change", "setting": "haplotype 2-1-1 in SNP window 2-3-4, Caucasians", "result": 0.295},
      {"measurement": "Mean BNEG % score change", "setting": "haplotype 2-1-1 in SNP window 3-4-5, African-Americans", "result": "−0.379"},
      {"measurement": "Mean BNEG % score change", "setting": "haplotype 2-1 in SNP window 3-4, African-Americans", "result": "−0.341"},
      {"measurement": "Mean BNEG % score change", "setting": "haplotype 2-1 in SNP window 4-5, African-Americans", "result": 0.107},
      {"measurement": "Mean BNEG % score change", "setting": "haplotype 2-2-1 in SNP window 1-2-3, Caucasians and African-Americans combined", "result": 0.592},
      {"measurement": "Mean BNEG % score change", "setting": "haplotype 2-2-1 in SNP window 1-2-3, Caucasians", "result": 0.889},
      {"measurement": "Mean BNEG % score change", "setting": "rs301434 genotype C/C, Caucasians & African-Americans combined", "result": "−0.115"},
      {"measurement": "Mean BPRS % score change", "setting": "rs301434 genotype C/C, Caucasians, negative = improvement", "result": "−0.248"},
      {"measurement": "Mean BNEG % score change", "setting": "rs301434 genotype T/C, Caucasians & African-Americans combined", "result": "−0.136"},
      {"measurement": "Mean BPRS % score change", "setting": "rs301434 genotype T/C, Caucasians, negative = improvement", "result": "−0.310"},
      {"measurement": "Mean BNEG % score change", "setting": "rs301434 genotype T/T, Caucasians & African-Americans combined", "result": 0.636},
      {"measurement": "Mean BPRS % score change", "setting": "rs301434 genotype T/T, Caucasians, negative = improvement", "result": 1.310},
      {"measurement": "Mean BNEG % score change", "setting": "rs1980943 genotype A/A, African-Americans, negative = improvement", "result": 3.000},
      {"measurement": "Mean BNEG % score change", "setting": "rs1980943 genotype G/A, African-Americans, negative = improvement", "result": "−0.378"},
      {"measurement": "Mean BNEG % score change", "setting": "rs1980943 genotype G/G, African-Americans, (6 months score-baseline score)/baseline score, negative = improvement", "result": 0.067}
    ]}
  ]
}
